This test deals with human KRAS^G12C NSCLC NCI-H2122 xenograft tumors. Description: NCI-H2122 xenograft, Compound A plus RMC-6291 combination. Type of test: in vivo. The settings on record: immune-deficient mice; repeated daily oral administration. Here is the method: The antitumor activity of Compound A in combination with RMC-6291 was evaluated using immune-deficient mice bearing human KRAS^G12C NSCLC NCI-H2122 xenograft tumors.

Turning to `CCn1c(-c2cccnc2[C@H](C)OC)c2c3cc(ccc31)N1CCO[C@@H](C[C@H](NC(=O)[C@H](C(C)C)N(C)C(=O)C3(F)CCN(C(=O)C#CC(C)(C)N(C)C)CC3)C(=O)N3CCC[C@H](N3)C(=O)OCC(C)(C)C2)C1` [RMC-6291], the Mean tumor regression entry is recorded as “mean tumor regressions were not achieved”.

The record behind these values is patent publication US20250345328A1, “METHODS OF TREATING A RAS RELATED DISEASE OR DISORDER” (Revolution Medicines, Inc., priority 2023, published 2025).
